The data set in a line: Tolerability of CPT in 3-week mouse xenograft studies (ER2019-09-1B, ER2019-09-1C). In kind it is in vivo. The protocol: This value is determined from the calculated free and total CPT concentrations in the sample. The “% free of total CPT” value provides the clearest indicator of drug substance stability during storage and use. […] The release specification for % free of total CPT in the drug substance is ≤3%. The stability specification for % free of total CPT in the drug substance is ≤5%. These limits are well below prior studies using CPT administered directly as a free drug. In two separate 3-week mouse xenograft studies (ER2019-09-1B, ER2019-09-1C) CPT itself was dosed and well-tolerated at 3 mg/kg which has a human equivalent dose of 9 mg CPT/m2.

Where the note is “3-week mouse xenograft studies”, `CC[C@@]1(O)C(=O)OCc2c1cc1n(c2=O)Cc2cc3ccccc3nc2-1` [CPT, 20 (S)-camptothecin] came in with a well-tolerated dose of 3 mg/kg. In addition, the “human equivalent dose of tolerated dose” value (mouse, in vivo) is reported as 9 mg CPT/m2.

The values above are taken from patent US20250152734A1, “USES AND FORMULATIONS OF CAMPTOTHECIN (CPT)-CONTAINING NANOPARTICLES” (DANTARI, INC., priority 2022, published 2025).
